According to article PMC2408963, “A Detailed Analysis of the Murine TAP Transporter Substrate Specificity” (PLoS ONE, 2008):
Where no end group is shown, it is not given here.

Legend:
human TAP complexes = assay: Fluorescence polarization assay with insect cell-expressed human TAP; assay type: binding
[1] = system: murine TAP1 or TAP2 protein alone
Excerpt: Using the same insect cell system for TAP expression, a novel assay was established which is based on detecting fluorescence polarization rather than the activity of a radioactive tracer. […] To establish a fluorescence polarization assay, we determined the concentrations of reporter peptide and microsomes yielding the highest specific binding signal (mP reading).

**Q.** For “R9L-FITC: reporter peptide in which position 6 (Ser) of R9L was substituted by a Cys residue coupled to a fluorescein group (RRYNAC(fluorescein)TEL)”, which “affinity for human TAP compared with murine TAP” value (human TAP complexes) is on record?
**A.** The value was “identical affinity”.

**Q.** What about the “binding to microsomes containing either murine TAP1 or TAP2 protein alone” value [1] of the same substance?
**A.** The value was “did not bind”.
